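Compound exposure: 48 hours, 5 concentrations, 96-well plates. At the TGI there is no net growth.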
Tests used:
Assay in all cases: inhibition of tumour cell growth, NCI panel, 48 h
HOP-92 NSCLC = test system: HOP-92 NSCLC
SF-539 CNS = test system: SF-539 CNS
NCI-H23 lung = test system: NCI-H23 lung
ACHN renal = test system: ACHN renal
HCT-15 colon = test system: HCT-15 colon
RXF 393 renal = test system: RXF 393 renal
PC-3 prostate = test system: PC-3 prostate
KM12 colon = test system: KM12 colon
NCI-H226 lung = test system: NCI-H226 lung
A549 NSCLC = test system: A549 NSCLC
NCI-H522 lung = test system: NCI-H522 lung
SNB-19 CNS = test system: SNB-19 CNS
HL-60(TB) leukemia = test system: HL-60(TB) leukemia
M14 melanoma = test system: M14 melanoma
OVCAR-3 ovarian = test system: OVCAR-3 ovarian
MALME-3M melanoma = test system: MALME-3M melanoma
NCI-H460 lung = test system: NCI-H460 lung
OVCAR-5 ovarian = test system: OVCAR-5 ovarian
SK-MEL-5 melanoma = test system: SK-MEL-5 melanoma
MDA-MB-231 breast = test system: MDA-MB-231 breast
IGROV1 ovarian = test system: IGROV1 ovarian
RPMI-8226 leukemia = test system: RPMI-8226 leukemia
SF-268 CNS = test system: SF-268 CNS
HT29 colon = test system: HT29 colon
MDA-MB-435 = test system: MDA-MB-435
NCI/ADR-RES ovarian = test system: NCI/ADR-RES ovarian
UO-31 renal = test system: UO-31 renal
COLO 205 colon = test system: COLO 205 colon
K-562 leukemia = test system: K-562 leukemia
SW-620 colon = test system: SW-620 colon
U251 CNS = test system: U251 CNS
OVCAR-4 ovarian = test system: OVCAR-4 ovarian
EKVX NSCLC = test system: EKVX NSCLC
SK-OV-3 ovarian = test system: SK-OV-3 ovarian
UACC-257 melanoma = test system: UACC-257 melanoma
SN12C renal = test system: SN12C renal
A498 renal = test system: A498 renal
BT-549 breast = test system: BT-549 breast
HOP-62 NSCLC = test system: HOP-62 NSCLC
SNB-75 CNS = test system: SNB-75 CNS
MOLT-4 leukemia = test system: MOLT-4 leukemia
HCC-2998 colon = test system: HCC-2998 colon
HCT-116 colon = test system: HCT-116 colon
SK-MEL-2 melanoma = test system: SK-MEL-2 melanoma
CCRF-CEM leukemia = test system: CCRF-CEM leukemia
HS 578T breast = test system: HS 578T breast
LOX IMVI melanoma = test system: LOX IMVI melanoma
CAKI-1 renal = test system: CAKI-1 renal
786-0 renal = test system: 786-0 renal
DU-145 prostate = test system: DU-145 prostate
MCF7 breast = test system: MCF7 breast
TK-10 renal = test system: TK-10 renal
SK-MEL-28 melanoma = test system: SK-MEL-28 melanoma
T-47D breast = test system: T-47D breast
MDA-N = test system: MDA-N
SR leukemia = test system: SR leukemia
SF-295 CNS = test system: SF-295 CNS
OVCAR-8 ovarian = test system: OVCAR-8 ovarian
UACC-62 melanoma = test system: UACC-62 melanoma

Measured: TGI

COc1ccc(/C=C2/N=C(N/N=C\C(O)C(O)C(O)C(O)CO)NC2=O)cc1 (centres undefined)
> 100 µM: HOP-92 NSCLC | SF-539 CNS | NCI-H23 lung | ACHN renal | HCT-15 colon | RXF 393 renal | PC-3 prostate | KM12 colon | NCI-H226 lung | A549 NSCLC | NCI-H522 lung | SNB-19 CNS | HL-60(TB) leukemia | M14 melanoma | OVCAR-3 ovarian | MALME-3M melanoma | NCI-H460 lung | OVCAR-5 ovarian | SK-MEL-5 melanoma | MDA-MB-231 breast | IGROV1 ovarian | RPMI-8226 leukemia | SF-268 CNS | HT29 colon | MDA-MB-435 | NCI/ADR-RES ovarian | UO-31 renal | COLO 205 colon | K-562 leukemia | SW-620 colon | U251 CNS | OVCAR-4 ovarian | EKVX NSCLC | SK-OV-3 ovarian | UACC-257 melanoma | SN12C renal | A498 renal | BT-549 breast | HOP-62 NSCLC | SNB-75 CNS | MOLT-4 leukemia | HCC-2998 colon | HCT-116 colon | SK-MEL-2 melanoma | CCRF-CEM leukemia | HS 578T breast | LOX IMVI melanoma | CAKI-1 renal | 786-0 renal | DU-145 prostate | MCF7 breast | TK-10 renal | SK-MEL-28 melanoma | T-47D breast | MDA-N | SR leukemia | SF-295 CNS | OVCAR-8 ovarian

COC(=O)CC1C(C)(C)C(=O)C2CC3=C4CC(=O)OC(c5ccoc5)C4(C)CCC3C1(C)C2=O (centres undefined)
> 100 µM: HOP-92 NSCLC | SF-539 CNS | NCI-H23 lung | ACHN renal | HCT-15 colon | RXF 393 renal | PC-3 prostate | KM12 colon | NCI-H226 lung | A549 NSCLC | NCI-H522 lung | SNB-19 CNS | HL-60(TB) leukemia | M14 melanoma | OVCAR-3 ovarian | MALME-3M melanoma | NCI-H460 lung | OVCAR-5 ovarian | SK-MEL-5 melanoma | MDA-MB-231 breast | IGROV1 ovarian | RPMI-8226 leukemia | SF-268 CNS | HT29 colon | MDA-MB-435 | NCI/ADR-RES ovarian | COLO 205 colon | K-562 leukemia | SW-620 colon | U251 CNS | OVCAR-4 ovarian | EKVX NSCLC | SK-OV-3 ovarian | UACC-257 melanoma | SN12C renal | A498 renal | BT-549 breast | HOP-62 NSCLC | SNB-75 CNS | MOLT-4 leukemia | HCC-2998 colon | HCT-116 colon | SK-MEL-2 melanoma | CCRF-CEM leukemia | HS 578T breast | LOX IMVI melanoma | CAKI-1 renal | 786-0 renal | DU-145 prostate | MCF7 breast | TK-10 renal | SK-MEL-28 melanoma | T-47D breast | MDA-N | SR leukemia | UACC-62 melanoma | SF-295 CNS | OVCAR-8 ovarian

O=c1c2cccnc2[nH]c2ccc3[nH]ncc3c12
> 10 µM: HOP-92 NSCLC | SF-539 CNS | NCI-H23 lung | ACHN renal | HCT-15 colon | RXF 393 renal | PC-3 prostate | KM12 colon | NCI-H226 lung | A549 NSCLC | NCI-H522 lung | SNB-19 CNS | HL-60(TB) leukemia | M14 melanoma | OVCAR-3 ovarian | MALME-3M melanoma | NCI-H460 lung | OVCAR-5 ovarian | SK-MEL-5 melanoma | MDA-MB-231 breast | IGROV1 ovarian | RPMI-8226 leukemia | SF-268 CNS | HT29 colon | MDA-MB-435 | NCI/ADR-RES ovarian | COLO 205 colon | K-562 leukemia | SW-620 colon | U251 CNS | OVCAR-4 ovarian | EKVX NSCLC | SK-OV-3 ovarian | UACC-257 melanoma | SN12C renal | A498 renal | BT-549 breast | HOP-62 NSCLC | SNB-75 CNS | MOLT-4 leukemia | HCC-2998 colon | HCT-116 colon | SK-MEL-2 melanoma | CCRF-CEM leukemia | HS 578T breast | LOX IMVI melanoma | CAKI-1 renal | 786-0 renal | DU-145 prostate | MCF7 breast | TK-10 renal | SK-MEL-28 melanoma | T-47D breast | MDA-N | SR leukemia | UACC-62 melanoma | SF-295 CNS | OVCAR-8 ovarian
